Experimental data as given in patent publication US20240246944A1, “AMINO HETEROARYL COMPOUNDS AND COMPOSITIONS” (Anrui Biomedical Technology (Guangzhou) Co., Ltd., priority 2021, published 2024).
pIC50: −log10 of the molar value. Read-outs that look alike come from different tables or passages of the source. Values belong to the compound of their own block, whether it stands above or below them.

Experiments:
[1] = target: N-terminal His-tagged TYK2 pseudokinase domain (Homo sapiens (Human), UniProt P29597); test: TYK2 JH2 domain SPA binding assay; conditions: displacement of H3 probe
N-terminal His-tagged TYK2 pseudokinase domain, sequence (P29597 589-875): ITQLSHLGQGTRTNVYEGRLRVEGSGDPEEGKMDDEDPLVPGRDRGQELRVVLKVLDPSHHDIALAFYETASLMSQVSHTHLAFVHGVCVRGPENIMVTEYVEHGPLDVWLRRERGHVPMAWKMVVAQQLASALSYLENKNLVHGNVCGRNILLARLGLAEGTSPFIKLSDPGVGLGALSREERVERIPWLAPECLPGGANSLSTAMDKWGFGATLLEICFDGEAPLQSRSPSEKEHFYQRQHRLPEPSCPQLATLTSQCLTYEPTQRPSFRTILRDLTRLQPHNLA
Description: TYK2 JH2 Domain Binding Assay
After incubating at room temperature for 30 min, the inhibition was calculated by the displacement of [3H] 3 binding as determined by scintillation counting.

[2] = tested on: IL-23 reporter (JAK2/Tyk2); test: IL-23 induced STAT3 QUANTI-Blue reporter assay in HEK-Blue IL-23 cells; format: cell-based
Description: Biological Example 2. IL-23 Induced STAT3 QUANTI-Blue in HEK-Blue™ IL-23 Cells
HEK-Blue™ IL-23 cells were prepared at 2×10^5 cells/ml for adding 5000 cell/well and incubate plates containing compounds+cells for 1 hour at 37° C. Prepare IL-23 (treatment at final conc. 0.1 ng/mL) during incubation and add 2 ul per well of prepared cytokine in media to appropriate wells. The plate was incubated for overnight at 37° C. The next day, QUANTI-Blue solution was prepared. 18 ul of QUANTI-Blue solution per well was added into a new 384-well clear flat bottom plate, followed by addition of 2 ul of induced and treated HEK-Blue cell supernatant from overnight plate. The plate was incubated at 37° C. for 2 hours and SEAP levels determined.

Jak1 JH2 = Jak1 JH2 (Homo sapiens (Human), UniProt P23458); test: Jak1 JH2 HTRF binding; conditions: biochemical assay
Jak1 JH2, sequence (P23458 583-855): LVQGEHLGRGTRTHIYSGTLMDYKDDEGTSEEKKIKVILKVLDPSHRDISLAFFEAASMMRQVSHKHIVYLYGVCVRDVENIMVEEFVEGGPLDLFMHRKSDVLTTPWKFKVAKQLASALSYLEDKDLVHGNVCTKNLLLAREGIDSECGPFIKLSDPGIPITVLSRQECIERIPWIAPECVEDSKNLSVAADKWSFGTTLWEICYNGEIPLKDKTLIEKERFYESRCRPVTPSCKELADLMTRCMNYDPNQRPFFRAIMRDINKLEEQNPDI

[3] = tested on: IFNα/β reporter (JAK1/Tyk2); test: IFN-alpha/beta reporter assay in HEK-Blue IFN-a/b cells; format: cell-based; conditions: cellular assay
Description: (§1) IFN-alpha/beta reporter assay. Seed HEK-Blue™ IFN-a/b cells (1-3×10^4 cells/well/[…]) to 96 cell plate with DMEM (10% HFBS+1% PS) and incubate overnight at 5% CO2&37° C. Diluent compounds in DMSO. Three times dilution and 10 doses. Add compounds to cell plate and incubate 1 h at 5% CO2&37° C. Add IFN-alpha/beta (5 U/ml) to cell plate and incubate overnight at 5% CO2&37° C. Prepare QUANTI-Blue Solution: add 100 μl of QB reagent and 100 μl of QB buffer to 9800 μl sterile water. Use cell supernatant and QUANTI-Blue solution in proportion of 1 to 10, incubate 2 h at 37° C. Read OD630.

IL-2 reporter (JAK1/3) = test: IL-2 reporter assay in HEK-Blue IL-2 cells; format: cell-based
Description: as §1, with “IL-2” for “IFN-alpha/beta”, “IL-2 Cells” for “IFN-a/b cells”, “IL-2 (1 ng/mL)” for “IFN-alpha/beta (5 U/ml)”

IFNγ reporter (JAK1/2) = test: IFN-γ reporter assay in HEK-Dual IFN-γ cells; format: cell-based
Description: as §1, with “IFN-γ” for “IFN-alpha/beta”, “HEK-Dual™ IFN-γ Cells” for “HEK-Blue™ IFN-a/b cells”, “IFN-γ (0.1 ng/mL)” for “IFN-alpha/beta (5 U/ml)”

[4] = tested on: IL-12/IL-18 induced IFN-gamma production; test: In vivo inhibition of IL-12/IL-18 induced IFN-gamma; conditions: mice, oral; for inhibition of IFNγ production (reduction compared to vehicle treated group): 10 mpk
Description: Biological Example 5. In Vivo Inhibition of IL-12/IL-18 Induced IFN-Gamma
Selected exemplified compounds of the present disclosure (compound Examples 4 and 5) and BMS986165 were dosed orally to female C57BL/6J mice (Charles River). One hour later, 0.05 μg of recombinant rat IL-12 was administered IV. Another hour later following IL-12 administration, 1 μg of recombinant rat IL-18 was administered IV. Three hours later, blood was collected and serum were obtained by centrifugation for analysis of IFNγ by ELISA.

IL-23-induced psoriasis = test: In vivo mouse psoriasis model induced by human IL-23; conditions: mice, 7.5, 15 and 30 mg/kg BID oral gavage
Description: Biological Example 6. In Vivo Mouse Psoriasis Model Selected exemplified compounds of the present disclosure were also tested in a mouse psoriasis model induced by human IL-23. Psoriasis was induced in 6-8-week-old C57BL/6J female mice (Charles River) by intradermal injection of recombinant human IL-23 into the left ear. IL-23 injections were administered every other day from day 1 through day 9 of the study. Selected compounds at 7.5, 15, and 30 mg/kg, with 15 mg/kg BMS986165 as positive control were dosed BID by oral gavage, with the first dose given the evening before first IL-23 injection. Ear thickness was measured every other day, prior to the ear injection.

Dog PK = format: in vivo, Beagle dogs; conditions: for AUC(0-t) / Cmax: beagle, plasma
Description: Biological Example 7. Dog PK
Selected exemplified compounds of the present disclosure were also tested in dog for pharmacokinetic studies. The Beagle dogs were fasted overnight with free access to drinking water prior to treatment. All the dosing solutions were freshly prepared prior to dose administration. In intravenous administration animal group were given a single dose of compound at 1 mg·kg-1. Blood for plasma samples were collected at pre-dose, 5, 15, 30 min, 1, 2, 4, 8, 12 and 24 h through vein into tubes anticoagulated with EDTA-K2. In intragastric administration animal group were given a single dose of compound at 5 mg·kg-1. Blood for plasma samples (˜0.5 mL) were collected at pre-dose, 15, 30 min, 1, 2, 4, 8, 12 and 24 h post-dose through vein into tubes anticoagulated with EDTA-K2. Blood samples were inverted several times and were held on wet ice pending centrifugation. The samples were centrifuged (within 20 minutes of collection) in a centrifuge set at 4° C. for 10 minutes at 1500-1600 g to obtain plasma. Plasma samples were transferred and frozen immediately after separation and stored in a freezer set at below −70° C. prior to analysis.

Mouse PK = format: in vivo
[5] = HEK-Blue IL-23 cells, Table 2, read-out: IL23 reporter assay_IC50
[6] = HEK-Blue IL-23, HEK-Blue IL-23 cells, Table 2, read-out: IL23 reporter assay_IC50
[7] = HEK-Blue IL-23, cellular assay, Table 3 and text, read-out: IL-23 reporter assay (JAK2/Tyk2) IC50
[8] = cellular assay, Table 3 and text, read-out: IL-23 reporter assay (JAK2/Tyk2) IC50
[9] = HEK-Blue, cellular assay, read-out: IL-2 reporter assay (JAK1/3) IC50
[10] = HEK-Blue, read-out: IC50 in IL-2 reporter assay (JAK1/3)
[11] = cellular assay, read-out: IFNγ reporter assay (JAK1/2) IC50
[12] = intravenous, 1 mg/kg single dose, read-out: AUC0-t (IV)
[13] = po, intragastric, 5 mg/kg single dose
[14] = po, intragastric, 5 mg/kg single dose, read-out: AUC0-t (PO)

SMILES: [2H]C([2H])([2H])NC(=O)c1cnc(NC(=O)C2CC2)cc1Nc1cc(F)cc(-c2cc(=O)n(C3CC3)cn2)c1OC [Example 6]
IC50 [1]: 30 nM
pIC50 [2, 5]: 7.74

SMILES: [2H]C([2H])([2H])NC(=O)c1cnc(NC(=O)C2CC2)cc1Nc1cccc(C(=O)NCc2ccc(NC(=O)CCl)cn2)c1OC [Example 2, 4-((3-(((5-(2-chloroacetamido)pyridin-2-yl)methyl)carbamoyl)-2-methoxyphenyl)amino)-6-(cyclopropanecarboxamido)-N-(methyl-d3)nicotinamide]
IC50 [1]: 5.56 nM
pIC50 [2, 5]: 7.81

SMILES: [2H]C([2H])([2H])NC(=O)c1cnc(NC(=O)C2CC2)cc1Nc1cccc(-c2cc(=O)n(C3CC3)cn2)c1OC [Example 3, 6-(cyclopropanecarboxamido)-4-((3-(1-cyclopropyl-6-oxo-1,6-dihydropyrimidin-4-yl)-2-methoxyphenyl)amino)-N-(methyl-d3)nicotinamide]
IC50 [1]: 16.1 nM
pIC50 [2, 5]: 8.19

SMILES: [2H]C([2H])([2H])NC(=O)c1nnc(NC(=O)C2CC2)cc1Nc1cccc(-c2ncn(C)n2)c1OC [BMS-986165, reference compound]
pIC50 [2, 7]: 8.46
pIC50 [2, 5]: 8.42
pIC50 (IL-2 reporter (JAK1/3); [9]): 6.66
pIC50 (IL-2 reporter (JAK1/3); cellular assay, read-out: IL-2 reporter assay (JAK1/3) IC50): 6.66
pIC50 (IFNγ reporter (JAK1/2); [11]): 5.96
AUC(0-t) (Dog PK; [12]): 3.8 µM·h
Cmax (Dog PK; [13]): 2.7 µM
AUC(0-t) (Dog PK; [14]): 22.3 µM·h

SMILES: [2H]C([2H])([2H])NC(=O)c1cnc(NC(=O)C2CC2)cc1Nc1cccc(C(=O)NCc2ccc(NC(=O)C=C)cn2)c1OC [Example 1, 4-((3-(((5-acrylamidopyridin-2-yl)methyl)carbamoyl)-2-methoxyphenyl)amino)-6-(cyclopropanecarboxamido)-N-(methyl-d3)nicotinamide]
IC50 [1]: 27 nM
pIC50 [2, 5]: 6.50

SMILES: [2H]C([2H])([2H])NC(=O)c1cnc(NC(=O)C2CC2)cc1Nc1cccc(C2=NC3(CC3)C(=O)N2)c1OC [Example 11]
pIC50 [2, 5]: 6.95

Second part, led by results:

pIC50 [2, 5]: 7.13
SMILES: [2H]C([2H])([2H])NC(=O)c1nnc(NC(=O)C2CC2)cc1Nc1cccc(C2=NC3(CC3)C(=O)N2)c1OC [Example 10]

pIC50 [2, 5]: 7.42
SMILES: [2H]C([2H])([2H])NC(=O)c1nnc(NC(=O)C2CC2)cc1Nc1cccc(-n2ncc(C)n2)c1OC [Example 13]

pIC50 [2, 6]: 7.74
pIC50 [2, 7]: ~7.74
pIC50 [2, 8]: 7.74
pIC50 (Jak1 JH2): 8.30
pIC50 ([3]; HEK-Blue): ~8.40
pIC50 [3]: 8.43
pIC50 (IL-2 reporter (JAK1/3); [9]): 6.16
pIC50 (IL-2 reporter (JAK1/3); [10]): < 5.00
pIC50 (IFNγ reporter (JAK1/2); [11]): < 5.00
pIC50 (IFNγ reporter (JAK1/2); read-out: IC50 in IFN-gamma reporter assay (JAK1/2)): < 5.00
SMILES: [2H]C([2H])([2H])NC(=O)c1nnc(NC(=O)C2CC2)cc1Nc1cccc(-c2cc(=O)n(C3CC3)cn2)c1OC [Example 4, 6-(cyclopropanecarboxamido)-4-((3-(1-cyclopropyl-6-oxo-1,6-dihydropyrimidin-4-yl)-2-methoxyphenyl)amino)-N-(methyl-d3)pyridazine-3-carboxamide]
inhibition of IFNγ production ([4]; 2.5 mpk): 52.7%
inhibition of IFNγ production ([4]; 5 mpk): 76.0%
inhibition of IFNγ production ([4]; 7.5 mpk): 88.6%
inhibition of IFNγ production (reduction compared to vehicle treated group) [4]: 93.3%
protection from IL-23-induced psoriasis (ear thickness), result in words (IL-23-induced psoriasis): dose-dependently protect mice from IL-23-induced psoriasis

pIC50 [2, 6]: 8.22
pIC50 [2, 7]: ~8.22
pIC50 [2, 8]: 8.21
pIC50 (Jak1 JH2): 7.88
pIC50 ([3]; HEK-Blue): ~8.30
pIC50 [3]: 8.34
pIC50 (IL-2 reporter (JAK1/3); [9]): < 5.00
pIC50 (IL-2 reporter (JAK1/3); [10]): < 5.00
pIC50 (IFNγ reporter (JAK1/2); [11]): < 5.00
AUC(0-t) (Dog PK; [12]): 6.4 µM·h
Cmax (Dog PK; [13]): 7.87 µM
AUC(0-t) (Dog PK; [14]): 47.5 µM·h
mouse PK profile compared to BMS986165, in words (Mouse PK): about the same with BMS986165
SMILES: [2H]C([2H])([2H])NC(=O)c1nnc(NC(=O)C2CC2)cc1Nc1cccc(-n2cnc(C)n2)c1OC [Example 5, 6-(cyclopropanecarboxamido)-4-((2-methoxy-3-(3-methyl-1H-1,2,4-triazol-1-yl)phenyl)amino)-N-(methyl-d3)pyridazine-3-carboxamide]
inhibition of IFNγ production (reduction compared to vehicle treated group) [4]: greater than 93%
inhibition of IL-12/IL-18 induced IFNγ production, result in words ([4]; positive control BMS986165): efficacy similar to the positive control tested
protection from IL-23-induced psoriasis (ear thickness), result in words (IL-23-induced psoriasis): dose-dependently protect mice from IL-23-induced psoriasis
pharmacokinetic profile in dog compared to BMS986165, in words (Dog PK): superior pharmacokinetic profile in dog compared to BMS986165

pIC50 [2, 5]: 7.60
SMILES: [2H]C([2H])([2H])NC(=O)c1nnc(NC(=O)C2CC2)cc1Nc1cccc(-c2nc(=O)n(C)[nH]2)c1OC [Example 15]

pIC50 [2, 5]: 7.15
SMILES: [2H]C([2H])([2H])NC(=O)c1nnc(NC(=O)C2CC2)cc1Nc1cc(F)cc(-n2ncc(C)n2)c1OC [Example 14]

pIC50 [2, 5]: 7.82
SMILES: [2H]C([2H])([2H])NC(=O)c1nnc(NC(=O)C2CC2)cc1Nc1cc(F)cc(-n2cnc(C)n2)c1OC [Example 12]

pIC50 [2, 5]: 6.50
SMILES: [2H]C([2H])([2H])NC(=O)c1nnc(NC(=O)C2CC2)cc1Nc1cc(F)cc(C2=NC3(CC3)C(=O)N2)c1OC [Example 9]
